Values quoted from earlier work as cited in patent US10632043B2, “Premix formulation for parenteral use and packaging thereof” (Aurobindo Pharma Ltd, priority 2015, dated 2020).
Read-outs that look alike come from different tables or passages of the source.

Conditions: for time stable: diluted to 4 mg/mL in 0.9% sodium chloride injection, polypropylene (PP) syringes

Cc1cccc([C@H](C)c2cnc[nH]2)c1C [dexmedetomidine]
loss of drug potency (PP syringe, over 48 hours): about 5%
time stable (5° C.): 14 days
time stable (20-25° C.): 2 days
loss of drug concentration (syringes at room temperature, over 48 hours): < 10%
loss of drug concentration (syringes, refrigerated, over 14 days): < 5%
